Where “and” joins values, the source holds several entries; their conditions need not be identical. Equal entries are not always repeated. Structures can show the parent of a compound that is named as a salt.
Assay: Pharmacokinetics (lactone form, HPLC, non-compartmental) in plasma and urine, days 1 and 4 of first course
Conditions: for fe, fraction of the drug excreted unchanged / Clr, renal clearance: Table VI
Excerpt: British Journal of Cancer (1996) 73, 744-750 O (C? 1996 Stockton Press All rights reserved 0007-0920/96 $12.00 Phase I and pharmacological study of the new topoisomerase I inhibitor G1147211, using a daily x 5 intravenous administration CJH Gerrits', GJ Creemers', JHM Schellens', P Wissel2, AS Th Planting', R Kunka2, K Selinger2, M de Boer-Dennert', Y Marijnen3, M Harteveld' and J Verweijl 'Department of Medical Oncology, Rotterdam Cancer Institute, Rotterdam, The Netherlands; 2Glaxo Wellcome Inc, Department of Clinical Pharmacology, NC, USA; 3Glaxo Wellcome Inc, Department of Clinical Research, Zeist, The Netherlands. Summary Topoisomerase I inhibitors are interesting anti-cancer agents with a novel mechanism of action. […] In subsequent patient cohorts the dose was escalated from 0.3 to 1.5 mg m-2 day-'. Pharmacokinetics analysis was performed on days 1 and 4 of the first course using a validated high- performance liquid chromatographic assay and non-compartmental methods. […] Its further development was stopped because of unpredictable and severe myelosuppression, gastrointestinal toxicity and haemorrhagic cystitis. In the late 1980s two discoveries brought about a renewal of interest in CPT; firstly, topoisomerase I was identified as the single cellular target of CPT (Hsiang et al., 1985; Hsiang and Liu, 1988) and, secondly, an overexpression of topoisomerase I was found in various tumour cell lines but not in normal tissues (Giovanella et al., 1989; Hirabayaski et al., 1992; Potmesil et al., 1988). Topoisomerase I is a nuclear enzyme that resolves topological problems of the torsionally strained (supercoiled) DNA (Slichenmyer et al., 1993). This is achieved by forming a covalent adduct between topoisome- rase I and the DNA, termed the cleavable complex. This catalytic intermediate creates single-strand DNA breaks, allowing the DNA molecule to rotate around the intact DNA strand at the cleavage site, leading to a relaxation of the DNA molecule and in this way replication, transcription and other DNA functions can proceed. These enzyme- bridged breaks are then resealed by topoisomerase I. CPT stabilises the cleavable complexes, thereby preventing resealing of single-strand DNA breaks in the presence of the drug (Covey et al., 1989; D'Arpa and Liu, 1989; Eng et al., 1988). Cytotoxicity is specific to the S-phase of the cell cycle because the double-strand breaks that occur during this phase are more difficult to repair in the presence of the drug (Horwitz and Horwitz, 1973). […] Other eligibility criteria included: (1) age>, 18 years; (2) an Eastern Cooperative Oncology Group (ECOG) performance status <2; (3) a predicted life expectancy of at least 3 months; (4) no previous anti-cancer therapy for at least 3 weeks (6 weeks for previous nitro- soureas or mitomycin C); (5) adequate haemato- poietic (WBC) 3 x 109 -', ANC > 1.5 x 109 1-' and platelets 100 x 10 1- 1), hepatic (bilirubin within normal limits, AST, ALT and/or alkaline phosphatase < 2.0 x normal), and renal (serum creatinine < 130 imol 1-') functions. All patients gave written informed consent.

[1] = 1.2 mg m-2, day 1, mean of dose level
[2] = 1.2 mg m-2, day 4, individual patients 7-12 in order
[3] = 1.2 mg m-2, day 4, mean of dose level
[4] = 1.5 mg m-2, day 1, individual patients 13, 15-18 in order
[5] = 1.5 mg m-2, day 1, individual patients 13-18 in order
[6] = 1.5 mg m-2, day 1, mean of dose level
[7] = 1.5 mg m-2, day 4, individual patients 13-18 in order
[8] = 1.5 mg m-2, day 4, mean of dose level
[9] = day 4, individual patients 1-3, 5-12, 16-18 in order

For CC[C@@]1(O)C(=O)OCc2c1cc1n(c2=O)Cc2c-1nc1cc3c(cc1c2CN1CCN(C)CC1)OCCO3 [GI147211, [7 - (methylpiperazinomethylene) - 10,11 - ethylene-dioxy-20(S)] camptothecin dihydrochloride], the “Cmax, mean” value [1] was 0.01498 µg/mL, the “MRT, mean” value [1] was 3.47 h and the “Vdss, mean” value [1] was 203 l m-2. The “t1/2, mean” value [1] was 3.45 h, the “tmax, mean” value [1] was 0.39 h and the AUCinf [2] was 0.02059 µg·h/mL and 0.03783 µg·h/mL and 0.0211 µg·h/mL and 0.01484 µg·h/mL and 0.02662 µg·h/mL and 0.01696 µg·h/mL. The “Clearance, total plasma clearance” value [2] was 971 ml min-1 m-2 and 529 ml min-1 m-2 and 948 ml min-1 m-2 and 1348 ml min-1 m-2 and 802 ml min-1 m-2 and 1179 ml min-1 m-2, the Cmax [2] was 0.01866 µg/mL and 0.02003 µg/mL and 0.01621 µg/mL and 0.00962 µg/mL and 0.01274 µg/mL and 0.01163 µg/mL and the MRT [2] was 3.06 h and 5.62 h and 3.47 h and 3.96 h and 7.06 h and 4.44 h. For the same compound, the Vdss [2] was 163 l m-2 and 167 l m-2 and 182 l m-2 and 299 l m-2 and 307 l m-2 and 291 l m-2, the “t1/2, elimination half-life” value [2] was 3.02 h and 4.07 h and 2.70 h and 2.20 h and 6.99 h and 4.99 h and the tmax [2] was 0.25 h and 0.42 h (5×). For the same compound, the “AUCinf, mean” value [3] was 0.02299 µg·h/mL, the “Clearance, mean” value [3] was 963 ml min-1 m-2 and the “Cmax, mean” value [3] was 0.01482 µg/mL. For the same compound, the “MRT, mean” value [3] was 4.60 h, the “Vdss, mean” value [3] was 235 l m-2 and the “t1/2, mean” value [3] was 3.99 h. The “tmax, mean” value [3] was 0.39 h, the AUCinf [4] was 0.02466 µg·h/mL and 0.02439 µg·h/mL and 0.02332 µg·h/mL and 0.02264 µg·h/mL and 0.02837 µg·h/mL and the “Clearance, total plasma clearance” value [4] was 1014 ml min-1 m-2 and 1025 ml min-1 m-2 and 1072 ml min-1 m-2 and 1104 ml min-1 m-2 and 881 ml min-1 m-2. The MRT [4] was 5.11 h and 3.57 h and 3.32 h and 3.65 h and 3.78 h, the Vdss [4] was 296 l m-2 and 204 l m-2 and 197 l m-2 and 225 l m-2 and 186 l m-2 and the “t1/2, elimination half-life” value [4] was 4.98 h and 4.62 h and 4.37 h and 4.61 h and 4.42 h. For the same compound, the Cmax [5] was 0.01508 µg/mL and 0.02748 µg/mL and 0.01921 µg/mL and 0.01953 µg/mL and 0.01891 µg/mL and 0.0159 µg/mL, the tmax [5] was 0.25 h (3×) and 0.42 h (2×) and 0.75 h and the “AUCinf, mean” value [6] was 0.02468 µg·h/mL. The “Clearance, mean” value [6] was 1019 ml min-1 m-2, the “Cmax, mean” value [6] was 0.01935 µg/mL and the “MRT, mean” value [6] was 3.89 h. For the same compound, the “Vdss, mean” value [6] was 222 l m-2, the “t1/2, mean” value [6] was 4.60 h and the “tmax, mean” value [6] was 0.39 h. The AUCinf [7] was 0.02692 µg·h/mL and 0.02951 µg·h/mL and 0.03085 µg·h/mL and 0.03451 µg·h/mL and 0.02485 µg·h/mL and 0.0527 µg·h/mL, the “Clearance, total plasma clearance” value [7] was 929 ml min-1 m-2 and 847 ml min-1 m-2 and 810 ml min-1 m-2 and 724 ml min-1 m-2 and 1006 ml min-1 m-2 and 474 ml min-1 m-2 and the Cmax [7] was 0.02002 µg/mL and 0.02381 µg/mL and 0.02541 µg/mL and 0.03219 µg/mL and 0.02118 µg/mL and 0.02825 µg/mL. The MRT [7] was 5.06 h and 2.56 h and 3.04 h and 4.47 h and 5.75 h and 4.74 h, the Vdss [7] was 261 l m-2 and 117 l m-2 and 144 l m-2 and 178 l m-2 and 319 l m-2 and 126 l m-2 and the “t1/2, elimination half-life” value [7] was 4.95 h and 3.44 h and 4.35 h and 5.62 h and 5.82 h and 4.43 h. For the same compound, the tmax [7] was 0.42 h (4×) and 0.25 h (2×), the “AUCinf, mean” value [8] was 0.03322 µg·h/mL and the “Clearance, mean” value [8] was 798 ml min-1 m-2. For the same compound, the “Cmax, mean” value [8] was 0.02514 µg/mL, the “MRT, mean” value [8] was 4.27 h and the “Vdss, mean” value [8] was 191 l m-2. For the same compound, the “t1/2, mean” value [8] was 4.77 h, the “tmax, mean” value [8] was 0.36 h and the “relation of AUC to the dose” value (0.3-1.5 mg m-2, Figure 3 day 4 of course 1) was “linearly related to the dose”. For the same compound, the terminal half-life (abstract, all patients) was 3.7 ± 1.2 h, the total plasma clearance (abstract, all patients) was 999 ± 184 mL/min and the “total plasma clearance, range” value (abstract, all patients) was 640 to 1329 mL/min. For the same compound, the volume of distribution (abstract, all patients) was 190+/-461 m-2, the “fraction of the drug excreted unchanged in the urine (fe)” value (day 1) was 0.14 ± 0.07 and the renal clearance (day 1) was 140+74 ml min-1 m-2. The “Clr, mean” value (day 1, Table VI) was 251 ml min-1 and 140 ml min-1 m-2, the “fe, mean” value (day 1, Table VI) was 0.143 and the “Total plasma clearance (mean+s.d.)” value (day 1, all dose levels) was 1014+ 177.0 ml min-1 m-2. The “Vdss (mean+s.d.)” value (day 1, all dose levels) was 193+ 45.9 l m-2, the “mean residence time (MRT) (mean+s.d.)” value (day 1, all dose levels) was 3.53+0.93 h and the “t1/2 (mean+s.d.)” value (day 1, all dose levels) was 3.54+0.99 h. For the same compound, the “fe, fraction of the drug excreted unchanged” value (day 1, individual patients 1-12, 14, 15 in order) was 0.114 and 0.081 and 0.212 and 0.115 and 0.156 and 0.149 and 0.106 and 0.101 and 0.088 and 0.085 and 0.116 and 0.347 and 0.191 and 0.135, the “Clr, renal clearance” value (day 1, individual patients 1-12, 15 in order) was 232 ml min-1 and 116 ml min-1 m-2 and 184 ml min-1 and 101 ml min-1 m-2 (2×) and 333 ml min-1 and 222 ml min-1 m-2 and 231 ml min-1 and 115 ml min-1 m-2 and 161 ml min-1 and 194 ml min-1 and 107 ml min-1 m-2 (2×) and 201 ml min-1 and 122 ml min-1 m-2 and 151 ml min-1 and 84 ml min-1 m-2 and 203 ml min-1 and 226 ml min-1 and 113 ml min-1 m-2 and 208 ml min-1 and 119 ml min-1 m-2 and 663 ml min-1 and 358 ml min-1 m-2 and 280 ml min-1 and 150 ml min-1 m-2 and the “Clr, mean” value (day 4, Table VI) was 244 ml min-1 and 138 ml min-1 m-2. For the same compound, the “Clr, renal clearance” value [9] was 175 ml min-1 and 88 ml min-1 m-2 and 128 ml min-1 and 70 ml min-1 m-2 and 430 ml min-1 and 287 ml min-1 m-2 and 192 ml min-1 and 120 ml min-1 m-2 and 225 ml min-1 and 123 ml min-1 m-2 and 196 ml min-1 and 119 ml min-1 m-2 and 212 ml min-1 and 118 ml min-1 m-2 and 241 ml min-1 and 127 ml min-1 m-2 and 344 ml min-1 and 172 ml min-1 m-2 and 314 ml min-1 and 179 ml min-1 m-2 and 459 ml min-1 and 248 ml min-1 m-2 and 218 ml min-1 and 128 ml min-1 m-2 and 182 ml min-1 and 91 ml min-1 m-2 and 101 ml min-1 and 59 ml min-1 m-2 and the “fe, fraction of the drug excreted unchanged” value [9] was 0.109 and 0.095 and 0.428 and 0.181 and 0.197 and 0.122 and 0.219 and 0.133 and 0.128 and 0.239 and 0.210 and 0.177 and 0.090 and 0.125.
